Experimental data from patent publication US20240400698A1, “ANTI-CHEMOKIN LIKE RECEPTOR 1 ANTIBODIES AND THEIR THERAPEUTIC APPLICATIONS” (OSE IMMUNOTHERAPEUTICS, priority 2018, published 2024).

Tests used:
[1] = system: mice, peritonitis induced by Zymosan A; experiment: Zymosan A peritonitis model (sepsis); format: in vivo; conditions: preventive injection, vs isotype control
Procedure: FIG. 7. […] Preventive injection of anti-CMKLR1 was performed before Zymosan A injection (1 mg per mouse in 1 mL): RvE1 (1 μg per mouse) (•), 2G1 antibody (10 μg per mouse) ( ) or isotype control antibody (x). A. PMN numbered during the first 50 hours after Zymosan A injection. B. Macrophages numbered during the first 50 hours after Zymosan A injection. C. Resolution index.
Common peritonitis is induced by intraperitoneal injection of Zymosan A® (1 mg per mouse in 1 mL). Preventive injection of anti-CMKLR1 was performed 5 minutes before Zymosan A injection: RvE1 (1 μg per mouse), 2G1 antibody (10 μg per mouse). Murine peritoneal polymorphonuclear neutrophil (PMN) and macrophages were collected at 2-4-8-16-24 and 48 h after Zymosan A injection and numbered by flow cytometry analysis to determinate the resolution index (Bannenberg et al., 2005).

[2] = system: male C57BI/6 mice, Aldara-induced psoriasis; experiment: Imiquimod (Aldara)-induced psoriasis-like skin inflammation; format: in vivo; conditions: 1 μg per mouse i.p. daily, vs control molecule
Procedure: FIG. 6. Effect of Resolvin E1 on an autoimmune disease such as mice psoriasis model. Aldara treated mice for 6 consecutive days were injected intra-peritoneally with: RvE1 (1 μg) (•) and PBS daily, and isotype control antibody (10 μg) (x) at day 0, 2 and 4. A. Ear thicknesses and B. skin thicknesses were measured daily until the recovery.
Aldara@ cream which is known to induce psoriasis in mice was used on male C57BI/6 mice (8-10-week old). Mice received a daily topical dose of Aldara on the shaved back and the left ear for 6 consecutive days. Treatments were injected intra-peritoneally: RvE1 (1 μg per mouse) and PBS daily. Ear (FIG. 6A) and back (FIG. 6B) thicknesses were measured daily until the recovery.

[3] = system: mice M1 or M2 macrophages; experiment: Cytokine secretion by mice M1 or M2 macrophages (ELISA), FIG. 15; format: cell-based; conditions: FIG. 15; IL10, CCL17, IL12p40
Procedure: FIG. 15. Study of the inflammatory cytokine secretion by human macrophages during CMKLR1 activation. After differentiation of human macrophages M1 or M2, cells were incubated in presence of medium, isotype control, anti-CMKLR1 antibodies (H6 and BZ194), C15 peptides, 2G1 anti-CMKLR1 antibody or RvE1. Secretion of IL10, CCL17 and IL12p40 were assessed by ELISA. Cytokines secretion is measured in the supernatant by using an ELISA kit from BD. Supernatant were diluted at 1/10 for IL10 cytokines, 1/50 for CCL17 cytokines and 1/100 for IL12p40 cytokines. A. IL10 cytokine secretion by M2 cells. B. CCL17 cytokine secretion by M2 cells. C. represents IL 12 cytokine secretion by M1 cells.
Bone marrow cells were harvested and cultured in the RPMI medium supplemented with 10% FBS, glutamine and antibiotics containing macrophages colony-stimulating factor (M-CSF) at 100 ng/ml for 5 days inducing the macrophages differentiation. The macrophages were harvested and cultured for 2 days with either IFNg (20 ng/ml) and LPS (100 ng/ml) inducing the M1 polarization or with IL-4 (20 ng/ml) inducing the M2 polarization. Treatments were added during macrophage polarization at 2 μg/ml.
After differentiation of mice M1 or M2 as explain above, cells were incubated in presence of medium, isotype control, anti-CMKLR1 antibodies: clones H6 and BZ194, C15 peptides, 2G1 the anti-CMKLR1 antibody of interest or RvE1 were used. Then the secretion of IL10, CCL17 and IL12p40 was assessed by ELISA. Cytokines secretion was measured in the supernatant using an ELISA kit from BD. Supernatants were diluted at 1/10 for IL10 cytokines, 1/50 for CCL17 cytokines and 1/100 for IL12p40 cytokines.
Cytokines secretion was detected by ELISA according to the BD manufacturer instructions. Briefly, supernatants were diluted in the appropriate buffer and incubated for 2 hours after overnight coating with capture antibody and saturation. […] TMB supplied by BD Bioscience was used as substrate and colorimetric reaction was read with TECAN.

[4] = system: Mice dendritic cells; experiment: Maturation and differentiation of mice bone marrow derived dendritic cells, activation markers and viability by FACS; format: cell-based
Procedure: FIG. 1. Effect of the anti-CMKLR1 variants 1G1, 2G1, 3G1 and 4G1 chimeric antibodies on the DCs maturation and differentiation. Mice dendritic cells were incubated during maturation phase (24 h or 48 h) followed by a differentiation phase with excipient or RvE1 or anti-CMKLR1 antibodies variants (mutations on positions 1 and 2 of SEQ ID No. 8, corresponding to the VH-CDR3: 1G1 (LL), 2G1 (LI), 3G1 (IL) or 4G1 (II) or isotype controls (hIgG1 or mIgG)). Cells were then stained for FACS analysis with cell marker antibodies: A. CD80-PE; B. CD86-FITC; C. CD103-PerCPCy5.5; D. I/Ab-APC. Mean of Fluorescence was determined in each condition. E and F represent the viability of the cells measured by FACS using LIVE/DEAD® kit from Life Technologies in each condition after 24 or 48 hours of maturation respectively.
FIG. 17. Study of the myeloid cell activation markers after CMKLR1 pathway activation. Dendritic cells incubated in excipient, RvE1, 2G1 or isotype control (hIgG1) were then stained for FACS analysis with marker antibodies: A. CD80-PE. B. CD86-FITC. C. CD103-PerCPCy5.5. D. CD40-PeCy7. E. I/Ab-APC. Mean of Fluorescence was determined in each condition.
Bone marrow cells were harvested and cultured in RPMI medium supplemented with 10% FBS, glutamine and antibiotics and the dendritic cell differentiation was induced by GM-CSF at 20 ng/ml for 7 days. Then, immature dendritic cells (iDC) were collected and cultured for 24 hours with LPS (100 ng/ml) to induce the maturation from iDC to mDC. Treatments were added during differentiation and maturation at 2 μg/ml.
Dendritic cells were resuspended in PBS-FBS-EDTA and incubated with live and dead (LIVE/DEAD® Fixable Dead Cell Stains Yellow-Life Technologies) for 30 minutes on ice. Staining of CD11c-BV711, CD11b-APCCy7, I/Ab-APC, CD103-PerCPCy5.5, CCR7-V450, CD40-PeCy7, CD80-PE, CD86-FITC (all provided by BD Pharmingen) were performed.

[5] = system: C57BI/6 male mice, colitis induced by TNBS; experiment: Acute inflammatory colitis model induced by TNBS; format: in vivo; conditions: FIG. 3, 2G1 10 μg, RvE1 1 μg per mouse i.p.
Procedure: FIG. 3. […] Mice received 200 μL of the haptenating agent TNBS at 5% in 50% ethanol on day 0 and then were injected with isotype control hIgG1 (10 μg per mouse) (x), RvE1 (1 μg per mouse) daily (•), or 2G1 antibody (10 μg per mouse) three times ( ) for 5 days, or non-treated (wild type animals) (▾). Mice were sacrificed colon length was measured in each condition.
Colitis was induced in 8-10 weeks-old-C57BI/6 male mice by intrarectal injection of 200 μL of the haptenating agent TNBS at 5% in 50% ethanol on day 0. Treatments were injected intra-peritoneally; RvE1 (1 μg per mouse) daily for three days, or 2G1 antibody (10 μg per mouse) twice for 3 days. Colitis follow-up consisting of body weight and stool score (0: normal stool; 4: blood in stool) parameters were performed daily (data not represented). When mice are euthanized, colon length representing the pathology severity was measured.

| Molecule | PMNs number ([1]; FIG. 7A) | macrophages number ([1]; FIG. 7B) | resolution index ([1]; FIG. 7C) | thickness of the ears ([2]; FIG. 6A) | thickness of the skin (back) ([2]; FIG. 6B) | inflammatory cytokines secreted by M1 or M2 macrophages, result compared with that of 2G1 [3] | expression of CD80, CD86, CD103, CD40 and IAb (DC activation markers) ([4]; FIG. 17, FACS, compared to the excipient or isotype control) | colon length [5] | DCs activation and/or maturation towards a pro-inflammatory pathway ([4]; FIG. 1, mice dendritic cells, maturation 24 h or 48 h) | viability of cells ([4]; FIGS. 1E and 1F, LIVE/DEAD kit, after 24 or 48 hours of maturation, compared with other antibodies, C7 or Resolvin E1) |
| --- | --- | --- | --- | --- | --- | --- | --- | --- | --- | --- |
| CC[C@@H](O)/C=C/C=C\C[C@@H](O)/C=C/C=C/C=C\[C@@H](O)CCCC(=O)O [RvE1, Resolvin E1, reference compound] | slightly less | slightly less | better resolution index | lower thickness | lower thickness | different | strong decrease | the same as normal animal (wt) | – | – |
| 1G1: anti-CMKLR1 chimeric antibody variant, LL on positions 1 and 2 of VH-CDR3 (SEQ ID No. 8) (antibody, V domains shown) VH: EVQLVASGGGLVQPGGSLKLSCAASGFTFSSYGMSWVRQTPDRRLELVATINRYGGSTYYPDSVKGRFTISRDNAKNTLYLQMSSLKSEDTAMYYCPRLLYYGNEGDSWGQGTTLTVSS VL: QIVLTQSPAIMSASPGEKVTMTCSASSSVSFMHWYQQKSGTSPKRWIYDTTKLTSGVPARFSGSGSGTFYSLTISSMEAEDAATYYCQQWNSKPPLTFGPGTKLELKR | – | – | – | – | – | – | – | – | inhibit DCs activation and/or maturation in a stronger manner than other synthetized antibodies (3G1 and 4G1) | enhanced |
